# Experimental data: EPA's ToxRefDB 2
# Legend:
# [1] = test system: rat; details: Subchronic oral toxicity in rodents, sprague dawley, Feed, dose end: 90 day, group: systemic, systemic / clinical chemistry / cytochrome p450, nos / cytochrome p450, nos + systemic / in life observation / body weight / body weight …
# [2] = test system: rabbit; details: Prenatal developmental toxicity study, other, Oral, Gavage/Intubation, dose end: 19 GD
# [3] = test system: dog; details: Chronic toxicity, beagle, Oral, Feed, dose end: 52 week, group: systemic
# [4] = test system: rat; details: Combined chronic toxicity/carcinogenicity, sprague dawley, Oral, Feed, dose end: 23 month, group: systemic
# [5] = test system: rat; details: Multigenerational reproductive toxicity study, other, Oral, Feed, dose end: 2 generation
# [6] = test system: mouse; details: Subchronic oral toxicity in rodents, cd1, Feed, dose end: 90 day, group: systemic, systemic / organ weight / liver / absolute + systemic / organ weight / liver / relative to body weight + systemic / organ weight / liver / …
# [7] = test system: rat; details: Prenatal developmental toxicity study, sprague dawley, Oral, Gavage/Intubation, dose end: 16 GD
# [8] = test system: mouse; details: Carcinogenicity, cd1, Oral, Feed, dose end: 18 month, group: systemic
# [9] = test system: dog; details: Subchronic oral toxicity in nonrodent, beagle, Feed, dose end: 90 day, group: systemic, systemic / hematology / erythrocyte (rbc) count differential / erythrocyte (rbc) + systemic / hematology / hematocrit (hct) / hematocrit (…
# [10] = group: developmental, systemic / in life observation / body weight / fetal weight
# [11] = group: maternal, reproductive / reproductive performance / resorptions / resorptions + systemic / in life observation / body weight / body weight gain + …
# [12] = systemic / in life observation / body weight / body weight gain + systemic / organ weight / thyroid gland / absolute + systemic / organ …
# [13] = systemic / in life observation / clinical signs / salivation
# [14] = systemic / hematology / erythrocyte (rbc) count differential / erythrocyte (rbc) + systemic / hematology / hematocrit (hct) / hematocrit (…
# [15] = group: offspring, systemic / in life observation / body weight / offspring (pup) weight + systemic / in life observation / body weight / offspring (pup) …
# [16] = group: parental, systemic / in life observation / body weight / body weight + systemic / in life observation / body weight / body weight gain + systemic / in…
# [17] = group: developmental, developmental / developmental malformation / bone / delayed ossification + developmental / developmental malformation / bone / short
# [18] = group: maternal, systemic / in life observation / clinical signs / salivation
# [19] = group: maternal, systemic / in life observation / clinical signs / salivation + systemic / in life observation / body weight / body weight gain + systemic / …
# [20] = systemic / pathology microscopic / liver / adenoma
# [21] = systemic / pathology microscopic / liver / adenoma + systemic / hematology / platelet / platelet + systemic / in life observation / body …
smiles,measurement,setting,value
COc1cc(OC)nc(Sc2cccc(Cl)c2C(=O)[O-])n1.[Na+] [Pyrithiobac-sodium],LEL,[1],31.8 mg/kg/day
same,LOAEL,[1],31.8 mg/kg/day
same,NEL,[1],3.25 mg/kg/day
same,NOAEL,[1],3.25 mg/kg/day
same,LEL,[2]; [10],1000 mg/kg/day
same,LOAEL,[2]; [10],1000 mg/kg/day
same,NEL,[2]; [10],300 mg/kg/day
same,NOAEL,[2]; [10],300 mg/kg/day
same,LEL,[2]; [11],1000 mg/kg/day
same,LOAEL,[2]; [11],1000 mg/kg/day
same,NEL,[2]; [11],300 mg/kg/day
same,NOAEL,[2]; [11],300 mg/kg/day
same,LOAEL,[3]; [12],580 mg/kg/day
same,NOAEL,[3]; [12],143 mg/kg/day
same,LEL,[3]; [13],2.8 mg/kg/day
same,NEL,[3]; [13],< 2.8 mg/kg/day
same,LEL,[4]; systemic / clinical chemistry / sodium / sodium,1.36 mg/kg/day
same,NEL,[4]; systemic / clinical chemistry / sodium / sodium + systemic / pathology microscopic / kidney / adenoma + systemic / in life observation / …,0.274 mg/kg/day
same,LOAEL,[4]; [14],200 mg/kg/day
same,NOAEL,[4]; [14],58.7 mg/kg/day
same,LOAEL,"[5]; group: offspring, systemic / in life observation / body weight / offspring (pup) weight",614 mg/kg/day
same,LEL,[5]; [15],614 mg/kg/day
same,NEL,[5]; [15],119 mg/kg/day
same,NOAEL,[5]; [15],119 mg/kg/day
same,LOAEL,[5]; [16],439 mg/kg/day
same,NOAEL,[5]; [16],85.6 mg/kg/day
same,LEL,"[5]; group: parental, systemic / in life observation / food consumption / food efficiency",119 mg/kg/day
same,NEL,"[5]; group: parental, systemic / in life observation / food consumption / food efficiency + systemic / in life observation / body weight / body weight + systemic…",1.93 mg/kg/day
same,LEL,[6],263 mg/kg/day
same,LOAEL,[6],263 mg/kg/day
same,NEL,[6],83.1 mg/kg/day
same,NOAEL,[6],83.1 mg/kg/day
same,LEL,[7]; [17],1800 mg/kg/day
same,LOAEL,[7]; [17],1800 mg/kg/day
same,NEL,[7]; [17],600 mg/kg/day
same,NOAEL,[7]; [17],600 mg/kg/day
same,LEL,[7]; [18],200 mg/kg/day
same,LOAEL,[7]; [18],200 mg/kg/day
same,NEL,[7]; [19],30 mg/kg/day
same,NOAEL,[7]; [19],30 mg/kg/day
same,LEL,[8]; [20],21.4 mg/kg/day
same,LOAEL,[8]; [20],21.4 mg/kg/day
same,NEL,[8]; [21],1.43 mg/kg/day
same,NOAEL,[8]; [21],1.43 mg/kg/day
same,LEL,[9],626 mg/kg/day
same,LOAEL,[9],626 mg/kg/day
same,NEL,[9],165 mg/kg/day
same,NOAEL,[9],165 mg/kg/day
